In patent US20250163066A1, “PROTACs of MALT1” (TEGID THERAPEUTICS, INC., priority 2022, published 2025) one finds EC50 data, which are given here for 17 compounds.

The structures appear in SMILES notation.

Sequence of MALT1 (Q9UDY8 whole entry): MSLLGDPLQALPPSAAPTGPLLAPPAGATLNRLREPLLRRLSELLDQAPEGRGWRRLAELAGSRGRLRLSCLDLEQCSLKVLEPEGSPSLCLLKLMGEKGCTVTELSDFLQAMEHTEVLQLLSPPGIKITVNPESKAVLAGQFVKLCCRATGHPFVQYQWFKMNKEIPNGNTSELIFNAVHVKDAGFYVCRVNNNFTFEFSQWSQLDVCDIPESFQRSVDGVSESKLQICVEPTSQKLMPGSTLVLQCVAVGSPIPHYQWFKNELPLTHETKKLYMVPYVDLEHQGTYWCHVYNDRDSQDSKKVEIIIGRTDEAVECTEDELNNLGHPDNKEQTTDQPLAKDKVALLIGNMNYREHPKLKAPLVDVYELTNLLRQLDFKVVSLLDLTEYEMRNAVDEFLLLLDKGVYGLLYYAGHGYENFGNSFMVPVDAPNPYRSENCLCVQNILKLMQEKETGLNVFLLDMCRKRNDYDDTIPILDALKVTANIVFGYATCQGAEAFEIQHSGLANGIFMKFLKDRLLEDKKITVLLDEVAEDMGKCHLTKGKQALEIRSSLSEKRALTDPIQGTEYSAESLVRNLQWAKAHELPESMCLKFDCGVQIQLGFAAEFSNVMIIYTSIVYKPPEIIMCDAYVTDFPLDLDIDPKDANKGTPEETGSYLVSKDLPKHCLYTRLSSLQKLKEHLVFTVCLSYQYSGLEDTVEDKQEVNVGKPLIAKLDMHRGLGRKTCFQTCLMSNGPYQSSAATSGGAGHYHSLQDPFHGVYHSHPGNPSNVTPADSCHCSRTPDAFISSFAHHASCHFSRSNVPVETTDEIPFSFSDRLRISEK

The assay has as its target MALT1 (Homo sapiens (Human), UniProt Q9UDY8). The assay is described as follows: MALT1 enzymatic activity inhibition (fluorescence, Ac-LRSR-AMC substrate). Type of assay: biochemical. To be noted: recombinant MALT1 1.5 ng/μl, Ac-LRSR-AMC 1 μM. As for the experimental part: Compound activity was determined using recombinant MALT1 protein (Creative Biomart, Cat #MALT1-28H) and Ac-LRSR-AMC Substrate in an in vitro enzymatic reaction. The enzymatic assay used to determine activity was a Fluorescence assay using a Microplate Reader ClarioStar Plus. The enzymatic reaction was carried out in 1× Assay Buffer (50 mM HEPES pH 7.2-7.4, 100 mM NaCl, 900 mM Sodium citrate, 10 mM DTT). The compounds were dispensed on a 384-well Diamond Well Plate (Axygen, Cat #P-384-120SQ-C—S) using the Biomek FX liquid handling system at 100× solutions of compounds in DMSO. 2.5×MALT1 mix (final concentration 1.5 ng/μl of MALT1) was prepared in 1× Assay Buffer and 8 μl of mixture per well were added into 384w white Reaction Plates with NBS (Corning, Cat #4513). 8 μl of 1× Assay Buffer were used for negative control. Plates were centrifuged for 1 min at 200 g. Next, the compounds were added to Reaction plates using Biomek station via following steps: 1 μl of 100× compounds (in DMSO) was mixed thoroughly with 19 μl of 1× Assay Buffer, then 4 μl of this mixture were added to Reaction plates with 8 μl of MALT1 mix. Plates were centrifuged for 1 min at 200 g and incubated for 10 minutes at rt. Next, 2.5× Ac-LRSR-AMC mix (final concentration 1 μM of Ac-LRSR-AMC) was prepared in 1× Assay Buffer and 8 μl of mixture per well were added to Reaction Plates using Biomek station. Plates were centrifuged for 1 min at 200 g, then the fluorescence was measured immediately using Microplate Reader. Plates were incubated for 30 minutes at 37° C., then for 30 minutes at rt. The fluorescence was measured after the whole incubation using Microplate Reader. The reaction signal was calculated as the subtraction of the first data set values from the second. The % inhibition was then used to calculate the IC50 values. The results of this assay are shown in the Table A. The values of EC50 shown as a letters A-E, where: A≤0.2 μM; 0.2 μM<B≤0.5 μM; 0.5 μM<C≤1 μM; 1<D≤5 μM; E >5.
With `COc1cc(-c2c(NC(=O)Nc3cnc(-c4noc(CNC(=O)CCOCCN5CCN(c6ccc7c(c6)CN(C6CCC(=O)NC6=O)C7=O)CC5)n4)c(C)c3)cnc3ccnn23)cc(OC)c1OC` (centres unmarked) [Compound 1, 3-(2-{4-[2-(2,6-Dioxopiperidin-3-yl)-1-oxo-2,3-dihydro-1H-isoindol-5-yl]piperazin-1-yl}ethoxy)-N-[(3-{3-methyl-5-[({[7-(3,4,5-trimethoxyphenyl)pyrazolo[1,5-a]pyrimidin-6-yl]amino}carbonyl)amino]pyridin-2-yl}-1,2,4-oxadiazol-5-yl)methyl]propenamide], the EC50 is > 5 µM.

In the case of `Cc1cc(NC(=O)Nc2cnc3ccnn3c2C2CCCC2)cnc1-c1noc(CCCCCC(=O)N2CCN(c3ccc4c(c3)CN(C3CCC(=O)NC3=O)C4=O)CC2)n1` (centres unmarked) [Compound 4, 1-(7-cyclopentylpyrazolo[1,5-a]pyrimidin-6-yl)-3-[6-[5-[6-[4-[2-(2,6-dioxo-3-piperidyl)-1-oxo-isoindolin-5-yl]piperazin-1-yl]-6-oxo-hexyl]-1,2,4-oxadiazol-3-yl]-5-methyl-3-pyridyl]urea], the EC50 was in the range of 0.2 to 0.5 µM.

As to `Cc1cc(NC(=O)Nc2cnc3ccnn3c2C2CCCC2)cnc1-c1nnc(CCCCCC(=O)N2CCN(c3ccc4c(c3)CN(C3CCC(=O)NC3=O)C4=O)CC2)o1` (centres unmarked) [Compound 5, 1-(7-cyclopentylpyrazolo[1,5-a]pyrimidin-6-yl)-3-[6-[5-[6-[4-[2-(2,6-dioxo-3-piperidyl)-1-oxo-isoindolin-5-yl]piperazin-1-yl]-6-oxo-hexyl]-1,3,4-oxadiazol-2-yl]-5-methyl-3-pyridyl]urea], the EC50 is ≤ 0.2 µM.

Consider `Cc1cc(NC(=O)Nc2cnc3ccnn3c2C2CCCC2)cnc1-c1cn(CCCCCCC(=O)N2CCN(c3ccc4c(c3)CN(C3CCC(=O)NC3=O)C4=O)CC2)nn1` (centres unmarked) [Compound 6, 1-(7-cyclopentylpyrazolo[1,5-a]pyrimidin-6-yl)-3-[6-[1-[7-[4-[2-(2,6-dioxo-3-piperidyl)-1-oxo-isoindolin-5-yl]piperazin-1-yl]-7-oxo-heptyl]triazol-4-yl]-5-methyl-3-pyridyl]urea], for which the EC50 lay in the range of 0.5 to 1 µM.

With `Cc1cc(NC(=O)Nc2cnc3ccnn3c2C2CCCC2)cnc1-c1cn(CCCCOCC(=O)N2CCN(c3ccc4c(c3)CN(C3CCC(=O)NC3=O)C4=O)CC2)nn1` (centres unmarked) [Compound 8, 1-(7-cyclopentylpyrazolo[1,5-a]pyrimidin-6-yl)-3-[6-[1-[4-[2-[4-[2-(2,6-dioxo-3-piperidyl)-1-oxo-isoindolin-5-yl]piperazin-1-yl]-2-oxo-ethoxy]butyl]triazol-4-yl]-5-methyl-3-pyridyl]urea], the EC50 lay in the range of 1 to 5 µM.

As for `Cc1cc(NC(=O)Nc2cnc3nccn3c2C2CCCC2)cnc1-c1noc(CCCCCC(=O)N2CCN(c3ccc4c(c3)CN(C3CCC(=O)NC3=O)C4=O)CC2)n1` (centres unmarked) [Compound 9, 1-(5-cyclopentylimidazo[1,2-a]pyrimidin-6-yl)-3-[6-[5-[6-[4-[2-(2,6-dioxo-3-piperidyl)-1-oxo-isoindolin-5-yl]piperazin-1-yl]-6-oxo-hexyl]-1,2,4-oxadiazol-3-yl]-5-methyl-3-pyridyl]urea], the EC50 is > 5 µM.

With `Cc1cc(NC(=O)Nc2cnc3ccnn3c2C2CCCC2)cnc1-c1noc(COCCCCN2CCN(c3ccc4c(c3)CN(C3CCC(=O)NC3=O)C4=O)CC2)n1` (centres unmarked) [Compound 11, 1-(7-cyclopentylpyrazolo[1,5-a]pyrimidin-6-yl)-3-[6-[5-[4-[4-[2-(2,6-dioxo-3-piperidyl)-1-oxo-isoindolin-5-yl]piperazin-1-yl]butoxymethyl]-1,2,4-oxadiazol-3-yl]-5-methyl-3-pyridyl]urea], the EC50 was in the range of 0.2 to 0.5 µM.

In the case of `Cc1cc(NC(=O)Nc2cnc3c(Cl)cnn3c2C2CCCC2)cnc1-c1noc(CCCN2CCN(c3ccc4c(c3)CN(C3CCC(=O)NC3=O)C4=O)CC2)n1` (centres unmarked) [Compound 19, 1-(3-chloro-7-cyclopentyl-pyrazolo[1,5-a]pyrimidin-6-yl)-3-[6-[5-[3-[4-[2-(2,6-dioxo-3-piperidyl)-1-oxo-isoindolin-5-yl]piperazin-1-yl]propyl]-1,2,4-oxadiazol-3-yl]-5-methyl-3-pyridyl]urea], the EC50 was 1 to 5 µM.

Consider `Cc1cc(NC(=O)Nc2cnc3c(Cl)cnn3c2C2CCCC2)cnc1-c1noc(CCCCN2CCN(c3ccc4c(c3)CN(C3CCC(=O)NC3=O)C4=O)CC2)n1` (centres unmarked) [Compound 20, 1-(3-chloro-7-cyclopentyl-pyrazolo[1,5-a]pyrimidin-6-yl)-3-[6-[5-[4-[4-[2-(2,6-dioxo-3-piperidyl)-1-oxo-isoindolin-5-yl]piperazin-1-yl]butyl]-1,2,4-oxadiazol-3-yl]-5-methyl-3-pyridyl]urea], for which the EC50 is 1 to 5 µM.

As to `Cc1cc(NC(=O)Nc2cnc3ccnn3c2C2CCCC2)cnc1-c1noc(CCCCN2CCN(c3ccc4c(c3)CN(C3CCC(=O)NC3=O)C4=O)CC2)n1` (centres unmarked) [Compound 21, 1-(7-cyclopentylpyrazolo[1,5-a]pyrimidin-6-yl)-3-[6-[5-[4-[4-[2-(2,6-dioxo-3-piperidyl)-1-oxo-isoindolin-5-yl]piperazin-1-yl]butyl]-1,2,4-oxadiazol-3-yl]-5-methyl-3-pyridyl]urea], the EC50 was ≤ 0.2 µM.

With `O=C1CCC(N2Cc3cc(N4CCN(CCCCc5nc(-c6ncc(NC(=O)Nc7cnc8c(Cl)cnn8c7C7CCCC7)cc6Cl)no5)CC4)ccc3C2=O)C(=O)N1` (centres unmarked) [Compound 22, N-(3-Chloro-7-cyclopentylpyrazolo[1,5-a]pyrimidin-6-yl)-N′-{5-chloro-6-[5-(4-{4-[2-(2,6-dioxopiperidin-3-yl)-1-oxo-2,3-dihydro-1H-isoindol-5-yl]piperazin-1-yl}butyl)-1,2,4-oxadiazol-3-yl]pyridin-3-yl}urea], the EC50 was in the range of 1 to 5 µM.

As for `Cc1cc(NC(=O)Nc2cnc3c(Cl)cnn3c2C2CCCC2)cnc1-c1noc(CCCN2CCN(c3cc4c(cc3F)C(=O)N(C3CCC(=O)NC3=O)C4=O)CC2)n1` (centres unmarked) [Compound 24, 1-(3-chloro-7-cyclopentyl-pyrazolo[1,5-a]pyrimidin-6-yl)-3-[6-[5-[3-[4-[2-(2,6-dioxo-3-piperidyl)-6-fluoro-1,3-dioxo-isoindolin-5-yl]piperazin-1-yl]propyl]-1,2,4-oxadiazol-3-yl]-5-methyl-3-pyridyl]urea], the EC50 is 1 to 5 µM.

In the case of `CO[C@@H](C)c1c(NC(=O)Nc2cc(Cl)cnc2OCCNC(=O)CCOCCN2CCN(c3ccc4c(c3)CN(C3CCC(=O)NC3=O)C4=O)CC2)cnc2ccnn12` (stereo partly drawn) [Compound 25, N-[2-[[5-chloro-3-[[7-[(1S)-1-methoxyethyl]pyrazolo[1,5-a]pyrimidin-6-yl]carbamoylamino]-2-pyridyl]oxy]ethyl]-3-[2-[4-[2-(2,6-dioxo-3-piperidyl)-1-oxo-isoindolin-5-yl]piperazin-1-yl]ethoxy]propanamide], the half-maximal effective concentration (EC50) was in the range of 0.2 to 0.5 µM.

For `COc1cc(-c2c(NC(=O)Nc3cnc(N4CCN(C(=O)COCC(=O)Nc5cccc6c5C(=O)N(C5CCC(=O)NC5=O)C6=O)CC4)c(C)c3)cnc3ccnn23)cc(OC)c1OC` (centres unmarked) [Compound 26, N-[2-(2,6-dioxo-3-piperidyl)-1,3-dioxo-isoindolin-4-yl]-2-[2-[4-[3-methyl-5-[[7-(3,4,5-trimethoxyphenyl)pyrazolo[1,5-a]pyrimidin-6-yl]carbamoylamino]-2-pyridyl]piperazin-1-yl]-2-oxo-ethoxy]acetamide], the EC50 is > 5 µM.

With `COc1cc(-c2c(NC(=O)Nc3cnc(NCCOCCOCCC(=O)N4CCN(c5ccc6c(c5)CN(C5CCC(=O)NC5=O)C6=O)CC4)c(C)c3)cnc3ccnn23)cc(OC)c1OC` (centres unmarked) [Compound 27, 1-[6-[2-[2-[3-[4-[2-(2,6-dioxo-3-piperidyl)-1-oxo-isoindolin-5-yl]piperazin-1-yl]-3-oxo-propoxy]ethoxy]ethylamino]-5-methyl-3-pyridyl]-3-[7-(3,4,5-trimethoxyphenyl)pyrazolo[1,5-a]pyrimidin-6-yl]urea], the EC50 was > 5 µM.

Take `COc1cc(-c2c(NC(=O)Nc3cnc(-n4cc(C(=O)NCCOCCOCCC(=O)N5CCN(c6ccc7c(c6)CN(C6CCC(=O)NC6=O)C7=O)CC5)cn4)c(C)c3)cnc3ccnn23)cc(OC)c1OC` (centres unmarked) [Compound 28, N-[2-[2-[3-[4-[2-(2,6-dioxo-3-piperidyl)-1-oxo-isoindolin-5-yl]piperazin-1-yl]-3-oxo-propoxy]ethoxy]ethyl]-1-[3-methyl-5-[[7-(3,4,5-trimethoxyphenyl)pyrazolo[1,5-a]pyrimidin-6-yl]carbamoylamino]-2-pyridyl]pyrazole-4-carboxamide]: the EC50 was > 5 µM.

`Cc1cc(NC(=O)Nc2cnc3ccnn3c2C2CCCO2)cnc1NCCOCCOCCOCCC(=O)N1CCN(c2ccc3c(c2)CN(C2CCC(=O)NC2=O)C3=O)CC1` (centres unmarked) [Compound 29, 1-[6-[2-[2-[2-[3-[4-[2-(2,6-dioxo-3-piperidyl)-1-oxo-isoindolin-5-yl]piperazin-1-yl]-3-oxo-propoxy]ethoxy]ethoxy]ethylamino]-5-methyl-3-pyridyl]-3-(7-tetrahydrofuran-2-ylpyrazolo[1,5-a]pyrimidin-6-yl)urea]: the EC50 was > 5 µM.
